Patent publication US20250223559A1, “AXIOLOID: A STEM CELL-BASED MODEL OF HUMAN AXIAL DEVELOPMENT” (KYOTO UNIVERSITY, priority 2022, published 2025)

System: human Axioloids
Test: Immunofluorescence and HCR in situ expression patterns in Axioloids
Type: cell-based
Experimental: Human Axioloid samples were washed twice with 0.1% BSA (Nacalai) in PBS (Takara), fixed with 4% paraformaldehyde (PFA) for 20 minutes at room temperature and then washed again twice with 0.1% BSA in PBS. Samples were permeabilized in 0.2% Triton X-100 (Nacalai) in PBS for 15 minutes at room temperature and blocked in 5% BSA in PBS for 1 hour at room temperature. Axioloid samples were stained with primary antibodies diluted in 0.5% BSA in PBST (1% Tween-20 (Nacalai) in PBS) for overnight (12-16 hours) at 4° C. Primary antibodies used in this study were: goat anti-TBXT (TBXT) (1:500, R&D Systems), mouse anti-Fibronectin (1:10, DSHB), mouse anti-Laminin (γ1) (1:10, DSHB), rabbit anti-MEOX1 (1:500, ATLAS), mouse anti-N-Cadherin (1:200, BD Biosciences), mouse anti-PKCζ (1:100, Santa Cruz), rabbit anti-SOX2 (1:400, Cell Signaling), and goat anti-TBX6 (1:500, R&D Systems). Samples were then washed twice with PBST and stained with secondary antibodies and Alexa Fluor 647 conjugated Phalloidin (Invitrogen) diluted in 0.5% BSA in PBST for 3 hours at room temperature, washed twice with PBST and counterstained with DAPI for 5 min at room temperature. […]

Q: How did the “expression gradients of FGF8 and WNT3a (HCR)” value (MG+RAL) turn out when CC1=C(/C=C/C(C)=C/C=C/C(C)=C/C=O)C(C)(C)CCC1 [RAL, all trans-Retinal] was run?
A: The value was “still showed clear expression gradients of FGF8 and WNT3a”.

Q: And the “protein and gene expression patterns (TBXT, MEOX1, UNCX, TBX18)” value (MG-embedded, RA or RAL treated)?
A: Its value is “largely unchanged or even improved”.
